According to patent US20240368192A1, “Nitrogen-Containing Heterocyclic Compound, and Preparation Method Therefor, Intermediate Thereof, and Application Thereof” (Shanghai Allist Pharmaceuticals Co., Ltd., priority 2021, published 2024):
Structures can show the parent of a compound that is named as a salt. Where two headings read alike, the source gives them in different places.

Tests used:
Ba/F3 KRAS-G12V cells = Ba/F3 KRAS-G12V cells (Homo sapiens, UniProt P01116, G12V, cells depend on it); assay: Proliferation inhibitory activity on Ba/F3 KRAS-G12V stably transfected cell line (CellTiter-Glo, 72 hours); type: cell-based, mouse; conditions: read-out: Ba/F3 KRAS-G12V IC50
Text: (§1) Test Example 1: Proliferation Inhibitory Activity on Ba/F3 KRAS-G12D, Ba/F3 KRAS-G12V Stably Transfected Cell Lines and AGS Tumor Cell Lines Containing KRAS G12D Mutations
(§2) To determine the proliferation inhibitory activity of the compounds in vitro on mouse pro-B cells Ba/F3 (Ba/F3 KRAS-G12D and Ba/F3 KRAS-G12V cells stably expressing KRAS G12D/V mutant proteins) and gastric cancer AGS cells expressing KRAS G12D mutant protein.
(§3) Cell sources. Ba/F3 KRAS-G12D and Ba/F3 KRAS-G12V were purchased from Kyinno Biotech (Beijing) Co., Ltd, Cat. No.: KC-1259 and KC-1261, respectively; AGS was purchased from Shanghai Bioleaf Biotech Co., Ltd.
(§4) Cells in the logarithmic growth phase were seeded in a 96-well plate (8000, 8000, 4000 cells/well, 90 μL/well for Ba/F3 KRAS-G12D, Ba/F3 KRAS-G12V, and AGS cells respectively), incubated at 37° C. for 1 day with 5% CO2, and then a gradient dilution of the test compound was added thereto (compounds 1 to 28 and comparative compounds). The details were as follows, the compound stock solution (10 mM) previously dissolved in DMSO was diluted to 10 gradient concentrations at a fold ratio (4 fold) and diluted to 10 fold of the target concentration in another 96-well plate with culture medium, and then 10 μL/well of the compound solution was added to the 96-well plate seeded with cells to reach the target concentration (10000, 2500, 625, 156, 39, 10, 2.5, 0.6, 0.15, 0.04 nM). Each concentration was provided with 3 duplicate wells and a blank control. After continued incubation at 37° C. and 5% CO2 for 72 hours, 50 μL of CellTiter-Glo*2.0 reagent (luciferase ATP bioluminescence detection reagent, purchased from Promega, Cat. No.: G9243) was added to each well, shaken for 2 minutes, and incubated at room temperature for 8 minutes, and then fluorescence luminescence intensity was detected (light collection time was 100 ms). The inhibitory rate of compounds with various concentrations on cell proliferation was calculated. Cell proliferation inhibition rate (%)=[(luminous intensitycontrol group containing cell culture medium for 72 hour−luminous intensitycompound group for 72 hour)/(luminous intensitycontrol group containing cell culture medium for 72 hours−luminous intensitycontrol group without cell culture medium for 72 hour)]×100%. GraphPad Prism 8.3 software was used to analyze the data, and nonlinear S-curve regression was used to fit the data to obtain a dose-effect curve, from which the IC50 value was calculated.

AGS cells = assay: Proliferation inhibitory activity on AGS tumor cell line containing KRAS G12D mutation (CellTiter-Glo, 72 hours); type: cell-based
Text: as §1, §2, §3, §4

Ba/F3 KRAS-G12D cells = Ba/F3 KRAS-G12D cells (Homo sapiens, UniProt P01116, G12D, cells depend on it); assay: Proliferation inhibitory activity on Ba/F3 KRAS-G12D stably transfected cell line (CellTiter-Glo, 72 hours); type: cell-based, mouse; conditions: read-out: Ba/F3 KRAS-G12D IC50
Text: as §1, §2, §3, §4

Sequence of Ba/F3 KRAS-G12V cells (P01116 whole entry G12V): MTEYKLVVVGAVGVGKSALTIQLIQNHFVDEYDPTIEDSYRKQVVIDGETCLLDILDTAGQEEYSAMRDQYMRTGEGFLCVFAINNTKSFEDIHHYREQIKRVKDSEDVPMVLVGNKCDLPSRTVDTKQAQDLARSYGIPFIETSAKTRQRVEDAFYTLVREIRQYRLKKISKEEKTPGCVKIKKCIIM
Sequence of Ba/F3 KRAS-G12D cells (P01116 whole entry G12D): as the sequence (P01116 whole entry G12V) above, with V12D counted along it

| SMILES | GI50 (Ba/F3 KRAS-G12V cells) [µM] | IC50 (AGS cells; Homo sapiens) [µM] | GI50 (Ba/F3 KRAS-G12D cells) [µM] | IC50 (AGS cells) [µM] |
| --- | --- | --- | --- | --- |
| C#Cc1c(F)ccc2cc(O)cc(-c3ncc4c(N5CCC(N)C(F)(F)C5)nc(OC[C@@]56CCCN5C[C@H](F)C6)nc4c3F)c12 (single isomer, unassigned) [Compound 20-P1] | 5 to 10 | 0.1 to 5 | ≤ 0.1 |  |
| C#Cc1c(F)ccc2cc(O)cc(-c3ncc4c(N5CCC(N)C(F)(F)C5)nc(OC[C@@]56CCCN5C[C@H](F)C6)nc4c3F)c12 (single isomer, unassigned) [Compound 20-P2] | 5 to 10 |  | 0.1 to 5 | 0.1 to 5 |
| C#Cc1c(F)ccc2cc(O)cc(-c3ncc4c(N5C[C@H](N)CC(F)(F)C5)nc(OC[C@@]56CCCN5C[C@H](F)C6)nc4c3F)c12 [Compound 6-P1, 4-(4-((R)-5-Amino-3,3-difluoropiperidin-1-yl)-8-fluoro-2-(((2R,7aS)-2-fluorotetrahydro-1H-pyrrolizin-7a(5H)-yl)methoxy)pyrido[4,3-d]pyrimidin-7-yl)-5-ethynyl-6-fluoronaphthalen-2-ol] | 5 to 10 | 5 to 10 | 0.1 to 5 |  |
| C#Cc1c(F)ccc2cc(O)cc(-c3ncc4c(N5C[C@@H](N)CC(F)(F)C5)nc(OC[C@@]56CCCN5C[C@H](F)C6)nc4c3F)c12 [Compound 6-P2, 4-(4-((S)-5-amino-3,3-difluoropiperidin-1-yl)-8-fluoro-2-(((2R,7aS)-2-fluorotetrahydro-1H-pyrrolizin-7a(5H)-yl)methoxy)pyrido[4,3-d]pyrimidin-7-yl)-5-ethynyl-6-fluoronaphthalen-2-ol] | 5 to 10 | 0.1 to 5 | ≤ 0.1 |  |
| C#Cc1c(F)ccc2cc(O)cc(-c3ncc4c(N5C[C@H]6C[C@@]6(N)C5)nc(OC[C@@]56CCCN5C[C@H](F)C6)nc4c3F)c12 [Compound 10, 4-(4-((1S,5R)-1-Amino-3-azabicyclo[3.1.0]hexan-3-yl)-8-fluoro-2-(((2R,7aS)-2-fluorohexahydro-1H-pyrrolizin-7a-yl)methoxy)pyrido[4,3-d]pyrimidin-7-yl)-5-ethynyl-6-fluoronaphthalen-2-ol bis(2,2,2-trifluoroacetate)] | 5 to 10 | 0.1 to 5 | 0.1 to 5 |  |
| Cc1cc(N)nc(-c2nc(Cl)c3c(N4C[C@H]5CC[C@@H](C4)N5)nc(OC[C@@]45CCCN4C[C@H](F)C5)nc3c2F)c1C(F)(F)F [Compound 17, 6-(4-((1R,5S)-3,8-Diazabicyclo[3.2.1]octan-3-yl)-5-chloro-8-fluoro-2-(((2R,7aS)-2-fluorohexahydro-1H-pyrrolizin-7a-yl)methoxy)pyrido[4,3-d]pyrimidin-7-yl)-4-methyl-5-(trifluoromethyl)pyridin-2-amine bis(2,2,2-trifluoroacetate)] | 5 to 10 | 5 to 10 | 0.1 to 5 |  |
| Cc1cc(N)nc(-c2nc(F)c3c(N4C[C@H]5CC[C@@H](C4)N5)nc(OC[C@@]45CCCN4C[C@H](F)C5)nc3c2F)c1C(F)(F)F [Compound 18, 6-(4-((1R,5S)-3,8-Diazabicyclo[3.2.1]octan-3-yl)-5,8-difluoro-2-(((2R,7aS)-2-fluorohexahydro-1H-pyrrolizin-7a-yl)methoxy)pyrido[4,3-d]pyrimidin-7-yl)-4-methyl-5-(trifluoromethyl)pyridin-2-amine bis(2,2,2-trifluoroacetate)] | 5 to 10 | 5 to 10 | 0.1 to 5 |  |
| C#Cc1c(F)ccc2cc(O)cc(-c3nc(F)c4c(N5C[C@H]6CC[C@@H](C5)N6)nc(OC[C@@]56CCCN5C[C@H](F)C6)nc4c3F)c12 [Compound 22, 4-(4-((1R,5S)-3,8-Diazabicyclo[3.2.1]octan-3-yl)-5,8-difluoro-2-(((2R,7aS)-2-fluorohexahydro-1H-pyrrolizin-7a-yl)methoxy)pyrido[4,3-d]pyrimidin-7-yl)-5-ethynyl-6-fluoronaphthalen-2-ol] | 5 to 10 | 0.016 | 0.002 |  |
| C#Cc1c(F)ccc2cc(O)cc(-c3ncc4c(N5[C@H]6CC[C@@H]5[C@@H](F)[C@H](N)C6)nc(OC[C@@]56CCCN5C[C@H](F)C6)nc4c3F)c12 [Compound 24, 4-4-(4-((1R,2S,3R,5S)-3-Amino-2-fluoro-8-azabicyclo[3.2.1]octan-8-yl)-8-fluoro-2-(((2R,7aS)-2-fluorohexahydro-1H-pyrrolizin-7a-yl)methoxy)pyrido[4,3-d]pyrimidin-7-yl)-5-ethynyl-6-fluoronaphthalen-2-ol] | 5 to 10 | 2.5 | 1.9 |  |
| C#Cc1c(F)ccc2cc(O)cc(-c3ncc4c(N5[C@@H]6CC[C@H]5[C@H](F)[C@@H](N)C6)nc(OC[C@@]56CCCN5C[C@H](F)C6)nc4c3F)c12 [Compound 25, 4-(4-((1S,2R,3S,5R)-3-Amino-2-fluoro-8-azabicyclo[3.2.1]octan-8-yl)-8-fluoro-2-(((2R,7aS)-2-fluorohexahydro-1H-pyrrolizin-7a-yl)methoxy)pyrido[4,3-d]pyrimidin-7-yl)-5-ethynyl-6-fluoronaphthalen-2-ol] | 5 to 10 | 2.5 | 1 |  |
| Oc1cc(-c2nc(Cl)c3c(N4C[C@H]5CC[C@@H](C4)N5)nc(OC[C@@]45CCCN4C[C@H](F)C5)nc3c2F)c2c(F)c(F)ccc2c1 [Compound 26, 4-(4-((1R,5S)-3,8-diazabicyclo[3.2.1]octan-3-yl)-5-chloro-8-fluoro-2-(((2R,7aS)-2-fluorohexahydro-1H-pyrrolizin-7a-yl)methoxy)pyrido[4,3-d]pyrimidin-7-yl)-5,6-difluoronaphthalen-2-ol] | 5 to 10 | 0.028 | 0.0017 |  |
| [2H]C#Cc1c(F)ccc2cc(O)cc(-c3nc(Cl)c4c(N5C[C@H]6CC[C@@H](C5)N6)nc(OC[C@@]56CCCN5C[C@H](F)C6)nc4c3F)c12 [Compound 28, 4-(4-((1R,5S)-3,8-Diazabicyclo[3.2.1]octan-3-yl)-5-chloro-8-fluoro-2-(((2R,7aS)-2-fluorotetrahydro-1H-pyrrolizin-7a(5H)-yl)methoxy)pyrido[4,3-d]pyrimidin-7-yl)-5-(ethynyl-d)-6-fluoronaphthalen-2-ol hydrochloride] |  | 0.006 | 0.001 |  |
